The nature of the data set: Fuel solubility: blends with commercial diesel. The format is physicochemical. The text has this:
Fuel solubility is a primary concern for diesel fuel applications. Not all highly polar oxygenates have good solubility in the current commercial diesel fuels.

These results are taken from patent publication US20100218415A1, “HYDROXYMETHYLFURFURAL ETHERS FROM SUGARS AND HIGHER ALCOHOLS” (FURANIX TECHNOLOGIES B.V., priority 2007, published 2010).

Where two headings read alike, the source gives them in different places.

In the case of `CCCCCCCCOCc1ccc(C=O)o1` [OMF, 5-(octyloxymethyl)furfural], the “miscibility with commercial diesel” value is “completely miscible”.
On to `CCOCc1ccc(C=O)o1` [EMF, ethoxymethylfurfural], for which the “miscibility with commercial diesel” value is on record as “completely miscible” (5 vol % blend with commercial diesel), “phase separation occurs” (25 vol % blend with commercial diesel) and “phase separation occurs” (40 vol % blend with commercial diesel).
